Measurements from ChEMBL document CHEMBL4765340, “Novel potent antiplatelet thrombotic agent derived from biguanide for ischemic stroke” (Eur J Med Chem, 2020).
Calls of active or inactive are those of the source. The calls are words filed in the database; no cut-off is given here.

Legend:
[1] = Inhibition of thrombin-stimulated human platelet aggregation by measuring aggregation at 0.50 mM measured after 1 hrs by scanning electron microscopy; format: functional; parameters: scale not given: the % may be the effect or the level left; details: dose 0.5 mM
[2] = Toxicity against C57BL/6J mouse assessed as kidney morphology at 200 mg/kg twice a day measured after 60 days; format: organism-based; details: in vivo, 1440 h, time 60 day
[3] = Toxicity in C57BL/6J mouse assessed as change in chloride level at 200 mg/kg twice daily for 60 days relative to control; format: organism-based; details: in vivo, 1440 h, time 60 day
Mus musculus [4] = test: Antithrombotic activity in calcein-labelled platelet-mediated ferric chloride-induced arterial injury thrombosis C57BL/6J mouse model assessed as thrombus length at 100 mg/kg, po administrated twice a day measured upto 7 days (reference value: 4.4 +/- 0.4 mm); format: functional; details: time day <=7
[5] = Toxicity in C57BL/6J mouse assessed as change in blood urea nitrogen level at 200 mg/kg twice daily for 60 days relative to control; format: organism-based; details: in vivo, 1440 h, time 60 day
Mus musculus [6] = test: Antithrombotic activity in calcein-labelled platelet-mediated ferric chloride-induced arterial injury thrombosis C57BL/6J mouse model assessed as thrombus weight at 50 mg/kg, po administrated twice a day measured upto 7 days (reference value: 3.3 +/- 0.3 mg); format: functional; details: time day <=7
[7] = Inhibition of thrombin-induced platelet aggregation in mouse platelet isolated from C57BL/6J mouse treated at 200 mg/kg, ig twice a day for 7 days by lumi-aggregometer; format: functional; details: po, 168 h, time 7 day
[8] = Toxicity against C57BL/6J mouse assessed as heart morphology at 200 mg/kg twice a day measured after 60 days; format: organism-based; details: in vivo, 1440 h, time 60 day
Mus musculus [9] = test: Antithrombotic activity in transient focal cerebral ischemic mouse model occlusion induced 60 mins of the right middle cerebral artery followed by reperfussion 23 hrs assessed as decrease in blood viscosity at 200 mg/kg, po twice daily for 7 days; format: functional, organism-based; details: time 7.0 day

CN(C)C(=N)NC(=N)NS(=O)(=O)C(F)(F)F
Activity [1]: 60%
Activity [2]: Non-Toxic
Activity [3]: Non-Toxic
Activity (Mus musculus [4]): 2.8 mm
Activity [5]: Non-Toxic
Activity (Mus musculus [6]): 2.7 mg
inhibition in vivo at 200 mg/kg [7]: 71.5%
Activity [8]: Non-Toxic
Activity (Mus musculus [9]): Active
